Measurements reported in patent US7622447B2, “Use of glutathione synthesis stimulating compounds in reducing insulin resistance” (DiaMedica Inc., priority 2002, dated 2009).
Values joined by “and” are separate entries in the source; they are usually repeats but may differ in a detail not shown here. Identical values can stand only once. “Also recorded” adds a separate entry of the source.

Tests used:
Wistar rats = assay: Rapid Insulin Sensitivity Test (RIST), euglycemic clamp, in saline and BSO (GSH-depleted) rats; assay type: in vivo, rat
Text: The rapid insulin sensitivity test (RIST) was employed (Lautt et al., Can. J. Physiol. Pharmacol. 76:1080 (1998)) is employed to avoid the complexity of the reaction to hypoglycemia. The RIST involves use of a euglycemic clamp following the administration of insulin and quantitation of the response as the amount of glucose required to be infused over the test period in order to hold arterial blood glucose levels constant. […] It is highly reproducible with up to five consecutive responses being obtainable in cats and four in rats with blood glucose levels returning to control levels between each test. Insulin, glucagon, and catecholamine levels remain unchanged between tests.
(§1) Summary: GSH depletion was induced in 5 week old Wistar rats using buthionine sulfoximine (BS), 2 mmol/kg bw, i.p. for 20 days. Control rats were injected with an equal volume of saline. Insulin sensitivity was measured using a euglycemic clamp, the Rapid Insulin Sensitivity Test—RIST. In both the saline group (SG) and BSO group (BG) a control RIST followed by a RIST post-L-NAME (1 mg/kg i.p.v.), a NOS competitive antagonist, and a RIST post-SIN-1 (5 mg/kg i.p.v.), a NO donor, were performed. The liver was removed for further determined of hepatic GSH content using the GSH peroxidase-reductase assay. […] The control RIST, 248.0±15.8 mg glucose/kg for SG, was impaired in the BG (158.4±12.2 mg glucose/kg; p<0.01). After L-NAME the SG RIST was 129.0±1.9 mg glucose/kg and the BG RIST was 109.0±9.1 mg glucose/kg. […] HISS action, quantified by subtracting the post L-NAME RIST from the control RIST, was 114.0±15.8 mg glucose/kg for SG and only 49.3±8.6 mg glucose/kg for BG (p<0.01). HISS dependent insulin resistance appears to be related to impaired levels of GSH in the liver, leading to a compromised HISS secretion/release.
Male Wistar rats (8 weeks) were anaesthetized with sodium pentobaribtial (65 mg/kg). Body temperature was maintained at 37±0.5 °C. An arterial-venous loop (carotid artery and internal jugular vein) was employed. A catheter was inserted into the portal vein.
RIST (Rapid Insulin Sensitivity Test): Blood samples (25 μl) for arterial glucose analysis were taken from the arterial-venous loop. A stable glucose baseline was established. Insulin (50 mU/kg i.v.) was infused over 5 minutes. Arterial blood samples were taken every 2 minutes. Glucose was adjusted to maintain euglycemia. RIST index=mg glucose/kg infused during RIST.

cats = details: cited from earlier work
fasting-induced HDIR = assay: Fasting-induced HISS-dependent insulin resistance (HDIR) model, overnight fast; assay type: in vivo
Text: A model of low hepatic GSH and NO production is produced by overnight fasting.

HISS = HISS action after NOS blockade; assay type: in vivo
hepatic GSH = assay: Hepatic GSH content by GSH peroxidase-reductase assay; assay type: in vivo, rat
Procedure: as §1, with “Test-RIST.” for “Test—RIST.”, “post-[…]” for “post-L-NAME (1 mg/kg i.p.v.), a”, “secretion/release. […] CONTENT: […] Hepatic GSH content was decreased in 48.3±6.9% in BSO group. ***=p<0.001.” for “secretion/release.”

hepatic glutathione = details: cited from earlier work

COC(=O)[C@@H](N)CCCNC(=N)N[N+](=O)[O-] [L-NAME]
RIST index post-L-NAME in BSO group (Wistar rats; BSO-treated rats, L-NAME 1 mg/kg intraportal): 109.0±9.1 mg glucose/kg and 109.8±9.1 mg glucose/kg
inhibition of RIST index by L-NAME (Wistar rats; control group, L-NAME 1 mg/kg i.p.v.): 52.3±5.8%

CN1[C@@H]2CC[C@H]1C[C@@H](OC(=O)C(CO)c1ccccc1)C2 (some centres unmarked) [atropine]
hepatic glucose response (cats; arterial-venous glucose response to bolus insulin after atropine): not notably altered

N[C@@H](CCC(=O)N[C@@H](CS)C(=O)NCC(=O)O)C(=O)O [GSH, glutathione]
reversal of HDIR / reduction in insulin resistance by GSH alone (fasting-induced HDIR; GSH by itself): small but significant reduction in insulin resistance; also recorded: minor reversal of HDIR
insulin sensitivity / reversal of HDIR by GSH together with NO donor (fasting-induced HDIR; GSH plus NO / NO donor): Improved insulin sensitivity; also recorded: only becomes therapeutically significant after the addition of the NO donor

CN1CCN(CC(=O)N2c3ccccc3C(=O)Nc3cccnc32)CC1 [pirenzepine]
dose producing a similar degree of insulin resistance (cats): 10^−7 mmol/kg

COc1ccccc1CNCCCCCCNCCCCCCCCNCCCCCCNCc1ccccc1OC [methoctramine]
dose producing full / similar degree of insulin resistance (cats): 10^−6 μmol/kg

Nitroprusside
HISS action after NOS blockade (HISS): not able to restore HISS action after NOS blockade

CCCCS(=N)(=O)CCC(N)C(=O)O (centres unmarked) [BSO, buthionine sulfoximine]
control RIST index in BSO group (Wistar rats; BSO 2 mmol/kg bw i.p. for 20 days, before L-NAME): 158.4±12.2 mg glucose/kg
decrease of HISS action (Wistar rats; BSO group compared to control group): 64.4%
HISS-independent component of insulin action (Wistar rats; BSO group versus control group): not different
HISS action (HISS-dependent component of insulin action) (Wistar rats; BSO group, control RIST minus post L-NAME RIST): 49.3±8.6 mg glucose/kg and 49.3±8.56 mg glucose/kg
reduction in hepatic GSH content (hepatic GSH; BSO group compared to saline/control group): 48.3±6.9%
hepatic GSH content (hepatic GSH; BSO group, BSO 2 mmol/kg bw i.p. for 20 days): 2.96±0.4 μmol/g fresh liver

[NH-]c1c[n+](N2CCOCC2)no1 [SIN-1, 3-morpholinosyndnonimine]
reversal of fasting induced HDIR by SIN-1 alone (fasting-induced HDIR; SIN-1 2.5 to 10 mg/kg i.p.v., overnight fast): do not reverse fasting induced HDIR
HISS action after NOS blockade (HISS): reverses HISS inhibition after NOS blockade
restoration of RIST index / insulin action by SIN-1 in BSO group (Wistar rats; BSO-treated rats, SIN-1 5 mg/kg i.p.v. after L-NAME, 5 mg/kg): only restored insulin action in the SG; also recorded: did not reverse the RIST index to control values
RIST index post-SIN-1 (Wistar rats; saline/control group, SIN-1 5 mg/kg i.p.v. after L-NAME, 5 mg/kg): 246.0±11.5 mg glucose/kg and 258.1±18.5 mg glucose/kg

C[S+](CC[C@H](N)C(=O)O)C[C@H]1O[C@@H](n2cnc3c(N)ncnc32)[C@H](O)[C@@H]1O (some centres unmarked) [SAMe, S-adenosylmethionine]
time of peak glutathione levels (hepatic glutathione; after oral administration of SAMe): 3 to 6 h
intrahepatic glutathione after SAMe administration (hepatic glutathione; in vivo): restored to near-normal levels
